# Assay results taken from patent US20260232767A1, “INTERLEUKIN-23 RECEPTOR ANTAGONIST PEPTIDES FOR USE IN THE TREATMENT OF PSORIASIS” (Janssen Pharmaceutica NV, priority 2023, published 2026).
# Test system: subjects with moderate-to-severe plaque psoriasis
# Test: Safety, adverse events, Example 2 through Week 56
# Assay type: in vivo, human
# Text: The LTE safety analysis was based on randomized participants in Example who entered the present long-term extension study and received at least one dose of study intervention (including a partial dose) during the study period.
# [1] = Combined, Week 16 through Week 56
compound,measurement,setting,value
"CC(=O)NCCCC[C@@H]1NC(=O)[C@H](Cc2c[nH]c3c(C)cccc23)NC(=O)[C@H]([C@@H](C)O)NC(=O)[C@H](CC(N)=O)NC(=O)[C@@H](NC(C)=O)C(C)(C)SSC(C)(C)[C@@H](C(=O)N[C@@H](Cc2ccc(OCCN)cc2)C(=O)N[C@@H](Cc2ccc3ccccc3c2)C(=O)NC2(C(=O)N[C@@H](CCC(=O)O)C(=O)N[C@@H](CC(N)=O)C(=O)N[C@@H](Cc3cccnc3)C(=O)N(C)CC(N)=O)CCOCC2)NC1=O [IL-23 receptor antagonist peptide, Ac-[Pen]*-N-T-[W(7-Me)]-[Lys(Ac)]-[Pen]*-Phe[4-(2-aminoethoxy)]-[2-Nal]-[THP]-E-N-[3-Pal]-Sarc-NH2 (*[Pen]-[Pen]* formdisulfidebond)]","Respiratory, thoracic and mediastinal disorders: number of subjects","100 mg QD, through Week 56",4
same,Retinal vein occlusion: number of subjects,"100 mg QD, through Week 56",0
same,Rhinorrhoea: number of subjects,"100 mg QD, through Week 56",0
same,Seasonal allergy: number of subjects,"100 mg QD, through Week 56",0
same,Skin and subcutaneous tissue disorders: % of subjects,"100 mg QD, through Week 56",(4.7%)
same,Skin and subcutaneous tissue disorders: number of subjects,"100 mg QD, through Week 56",2
same,Skin laceration: % of subjects,"100 mg QD, through Week 56",(2.3%)
same,Skin laceration: number of subjects,"100 mg QD, through Week 56",1
same,Skin papilloma: number of subjects,"100 mg QD, through Week 56",0
same,Social circumstances: number of subjects,"100 mg QD, through Week 56",0
same,Steatohepatitis: number of subjects,"100 mg QD, through Week 56",0
same,Subjects with AE leading to discontinuation: Abdominal discomfort,"100 mg QD, through Week 56",0
same,Subjects with AE leading to discontinuation: Abdominal pain,"100 mg QD, through Week 56",0
same,Subjects with AE leading to discontinuation: Alanine aminotransferase increased,"100 mg QD, through Week 56",0
same,Subjects with AE leading to discontinuation: Aspartate aminotransferase increased,"100 mg QD, through Week 56",0
same,Subjects with AE leading to discontinuation: Asthenia,"100 mg QD, through Week 56",0
same,Subjects with AE leading to discontinuation: Gamma-glutamyltransferase increased,"100 mg QD, through Week 56",0
same,Subjects with AE leading to discontinuation: Insomnia,"100 mg QD, through Week 56",0
same,Subjects with AE leading to discontinuation: Investigations,"100 mg QD, through Week 56",0
same,Subjects with AE leading to discontinuation: Nausea,"100 mg QD, through Week 56",0
same,Subjects with AE leading to discontinuation: Proctalgia,"100 mg QD, through Week 56",0
same,Subjects with AE leading to discontinuation: Psoriasis,"100 mg QD, through Week 56",0
same,Subjects with AE leading to discontinuation: Skin and subcutaneous tissue disorders,"100 mg QD, through Week 56",0
same,Subjects with AE leading to discontinuation: Transaminases increased,"100 mg QD, through Week 56",0
same,Subjects with AE leading to discontinuation: Weight increased,"100 mg QD, through Week 56",0
same,Subjects with COVID-19 associated AE: SARS-CoV-2 test positive,"100 mg QD, through Week 56",0
same,Subjects with treatment-emergent AE: Alanine aminotransferase increased,"100 mg QD, through Week 56",0
same,Subjects with treatment-emergent AE: Aspartate aminotransferase increased,"100 mg QD, through Week 56",0
same,Subjects with treatment-emergent AE: Bronchitis,"100 mg QD, through Week 56",0
same,Subjects with treatment-emergent AE: Headache,"100 mg QD, through Week 56",5
same,Subjects with treatment-emergent AE: Urinary tract infection,"100 mg QD, through Week 56",0
same,Subjects with treatment-emergent serious AE: Cardiac disorders,"100 mg QD, through Week 56",0
same,Subjects with treatment-emergent serious AE: Cerebrovascular accident,"100 mg QD, through Week 56",0
same,Subjects with treatment-emergent serious AE: Coronary artery disease,"100 mg QD, through Week 56",0
same,Subjects with treatment-emergent serious AE: Foot deformity,"100 mg QD, through Week 56",0
same,Subjects with treatment-emergent serious AE: General disorders and administration site conditions,"100 mg QD, through Week 56",0
same,Subjects with treatment-emergent serious AE: Infected cyst,"100 mg QD, through Week 56",0
same,"Subjects with treatment-emergent serious AE: Injury, poisoning and procedural complications","100 mg QD, through Week 56",0
same,Subjects with treatment-emergent serious AE: Ligament injury,"100 mg QD, through Week 56",0
same,"Subjects with treatment-emergent serious AE: Neoplasms benign, malignant and unspecified (incl cysts and polyps)","100 mg QD, through Week 56",0
same,Subjects with treatment-emergent serious AE: Nervous system disorders,"100 mg QD, through Week 56",0
same,Subjects with treatment-emergent serious AE: Non-cardiac chest pain,"100 mg QD, through Week 56",0
same,"Subjects with treatment-emergent serious AE: Respiratory, thoracic and mediastinal disorders","100 mg QD, through Week 56",0
same,Subjects with treatment-emergent serious AE: Tonsillar hypertrophy,"100 mg QD, through Week 56",0
same,Subjects with treatment-emergent serious AE: Uterine leiomyoma,"100 mg QD, through Week 56",0
same,Subjects with treatment-emergent serious AE: Ventricular dysfunction,"100 mg QD, through Week 56",0
same,Suicide attempt: % of subjects,"100 mg QD, through Week 56",(2.3%)
same,Suicide attempt: number of subjects,"100 mg QD, through Week 56",1
same,Sunburn: number of subjects,"100 mg QD, through Week 56",0
same,Thrombocytopenia: number of subjects,"100 mg QD, through Week 56",0
same,Thrombocytosis: number of subjects,"100 mg QD, through Week 56",0
same,Tonsillar hypertrophy: number of subjects,"100 mg QD, through Week 56",0
same,Tooth fracture: number of subjects,"100 mg QD, through Week 56",0
same,Type 2 diabetes mellitus: number of subjects,"100 mg QD, through Week 56",0
same,Urinary tract disorder: number of subjects,"100 mg QD, through Week 56",0
same,Uterine leiomyoma: number of subjects,"100 mg QD, through Week 56",0
same,Vascular disorders: % of subjects,"100 mg QD, through Week 56",(2.3%)
same,Vascular disorders: number of subjects,"100 mg QD, through Week 56",1
same,Ventricular dysfunction: number of subjects,"100 mg QD, through Week 56",0
same,Vertigo: % of subjects,"100 mg QD, through Week 56",(2.3%)
same,Vertigo: number of subjects,"100 mg QD, through Week 56",1
same,Vitamin D deficiency: number of subjects,"100 mg QD, through Week 56",0
same,Number of subjects with treatment-emergent AE: Cholelithiasis,[1],1
same,Number of subjects with treatment-emergent AE: Ear and labyrinth disorders,[1],2
same,Number of subjects with treatment-emergent AE: Endocrine disorders,[1],1
same,Number of subjects with treatment-emergent AE: Eye disorders,[1],3
same,Number of subjects with treatment-emergent AE: Eyelid skin dryness,[1],1
same,Number of subjects with treatment-emergent AE: Goiter,[1],1
same,Number of subjects with treatment-emergent AE: Hepatobiliary disorders,[1],2
same,Number of subjects with treatment-emergent AE: Hypertransaminasemia,[1],1
same,Number of subjects with treatment-emergent AE: Immune system disorders,[1],2
same,Number of subjects with treatment-emergent AE: Insomnia,[1],1
same,Number of subjects with treatment-emergent AE: Ocular cyst,[1],1
same,Number of subjects with treatment-emergent AE: Psychiatric disorders,[1],1
same,Number of subjects with treatment-emergent AE: Retinal vein occlusion,[1],1
same,Number of subjects with treatment-emergent AE: Seasonal allergy,[1],2
same,Number of subjects with treatment-emergent AE: Vertigo,[1],2
same,Subjects with treatment-emergent AE: Cholelithiasis (%),[1],(0.4%)
same,Subjects with treatment-emergent AE: Ear and labyrinth disorders (%),[1],(0.9%)
same,Subjects with treatment-emergent AE: Endocrine disorders (%),[1],(0.4%)
same,Subjects with treatment-emergent AE: Eye disorders (%),[1],(1.3%)
same,Subjects with treatment-emergent AE: Eyelid skin dryness (%),[1],(0.4%)
same,Subjects with treatment-emergent AE: Goiter (%),[1],(0.4%)
same,Subjects with treatment-emergent AE: Hepatobiliary disorders (%),[1],(0.9%)
same,Subjects with treatment-emergent AE: Hypertransaminasemia (%),[1],(0.4%)
same,Subjects with treatment-emergent AE: Immune system disorders (%),[1],(0.9%)
same,Subjects with treatment-emergent AE: Insomnia (%),[1],(0.4%)
same,Subjects with treatment-emergent AE: Ocular cyst (%),[1],(0.4%)
same,Subjects with treatment-emergent AE: Psychiatric disorders (%),[1],(0.4%)
same,Subjects with treatment-emergent AE: Retinal vein occlusion (%),[1],(0.4%)
same,Subjects with treatment-emergent AE: Seasonal allergy (%),[1],(0.9%)
same,Subjects with treatment-emergent AE: Ventricular dysfunction (%),[1],(0.4%)
same,Subjects with treatment-emergent AE: Vertigo (%),[1],(0.9%)
same,Acrochordon: % of subjects,"Combined, through Week 56",(0.8%)
same,Acrochordon: number of subjects,"Combined, through Week 56",2
same,Actinic keratosis: % of subjects,"Combined, through Week 56",(0.4%)
same,Actinic keratosis: number of subjects,"Combined, through Week 56",1
same,Alopecia: % of subjects,"Combined, through Week 56",(0.4%)
same,Alopecia: number of subjects,"Combined, through Week 56",1
same,Asthenia: % of subjects,"Combined, through Week 56",(0.4%)
same,Asthenia: number of subjects,"Combined, through Week 56",1
same,Asthma: % of subjects,"Combined, through Week 56",(0.4%)
same,Asthma: number of subjects,"Combined, through Week 56",1
same,Atrioventricular block first degree: % of subjects,"Combined, through Week 56",(0.4%)
same,Atrioventricular block first degree: number of subjects,"Combined, through Week 56",1
same,Basal cell carcinoma: % of subjects,"Combined, through Week 56",(0.4%)
same,Basal cell carcinoma: number of subjects,"Combined, through Week 56",1
same,Blood and lymphatic system disorders: % of subjects,"Combined, through Week 56",(2.0%)
same,Blood and lymphatic system disorders: number of subjects,"Combined, through Week 56",5
same,Bronchitis chronic: % of subjects,"Combined, through Week 56",(0.4%)
same,Bronchitis chronic: number of subjects,"Combined, through Week 56",1
same,Bundle branch block right: % of subjects,"Combined, through Week 56",(0.4%)
same,Bundle branch block right: number of subjects,"Combined, through Week 56",1
same,Cardiac disorders: % of subjects,"Combined, through Week 56",(1.6%)
same,Cardiac disorders: number of subjects,"Combined, through Week 56",4
same,Chills: % of subjects,"Combined, through Week 56",(0.8%)
same,Chills: number of subjects,"Combined, through Week 56",2
same,Cholelithiasis: % of subjects,"Combined, through Week 56",(0.4%)
same,Cholelithiasis: number of subjects,"Combined, through Week 56",1
same,Chronic obstructive pulmonary disease: % of subjects,"Combined, through Week 56",(0.4%)
same,Chronic obstructive pulmonary disease: number of subjects,"Combined, through Week 56",1
